Results taken from US20180185374A1, “INHIBITORS OF MTOR KINASE AS ANTI-VIRAL AGENTS” (THE TRUSTEES OF PRINCETON UNIVERSITY, priority 2009, published 2018).

Experiments:
HCMV [1] = assay: Western blot of HCMV proteins (IE1, pUL44, pUL99) in infected fibroblasts; format: cell-based, human cytomegalovirus; conditions: 6 to 96 hpi; rapamycin 20 nM, Torin1 250 nM; 3 PFU/cell
Method: FIG. 2. […] Serum-starved confluent fibroblasts were infected with HCMV at a multiplicity of 3 PFU/cell. […] Control cultures received the vehicle in which Torin1 was dissolved (NT). At 2 hpi cells were harvested, and cell-associated viral DNA was quantified by real-time PCR analysis. Error bars represent the standard errors of the means from two independent experiments performed in duplicate. […] The level of IE1 was determined at 6 hpi by a Western blot assay using an IE1-specific monoclonal antibody. The image is representative of two independent experiments. […] The expression of a GFP marker gene present in the viral genome was monitored at 24 h after infection in the presence or absence of drug.
FIG. 3. […] (A) Rapamycin-resistant mTOR activity is required for the accumulation of an some but not all HCMV proteins. […] Cells were harvested at the indicated times, and the accumulation of the indicated proteins was analyzed by Western blotting. […] At the indicated times DNA was isolated, and viral DNA was quantified by qPCR. Equivalent amounts of DNA were analyzed for each sample, and the results are normalized to the level of actin DNA per sample. […] At the indicated times the amount of UL99 RNA was determined by qPCR, and the results are normalized to the amount of actin RNA in each sample.
Cells were lysed in radioimmunoprecipitation assay (RIPA) buffer (50 mM Tris-HCl [pH 7.4], […], 0.25% sodium deoxycholate, 150 mM NaCl, 1 mM EDTA) containing protease inhibitors (complete EDTA free; Roche). Protein concentrations in each lysate were determined by the Bradford assay. 30 μg of protein was analyzed per sample. Proteins in cell lysates were resolved on SDS-containing 10% polyacrylamide gels. Proteins were transferred onto Protran membranes by using a semidry transfer apparatus. […]
Antibodies to pUL99 have been described previously (Silva, et al. J. Virol. (2003) 77:10594-10605). In addition, accumulation of HCMV DNA was monitored following infection using the methods described above.

HCMV [2] = assay: UL99 late transcript level by qPCR; format: cell-based, human cytomegalovirus; conditions: rapamycin 20 nM, Torin1 250 nM; 3 PFU/cell
MCMV = MCMV replication in MEFs, cell-free virus by TCID50; format: cell-based, murine cytomegalovirus; conditions: Torin1 250 nM
eIF4F complex [3] = assay: m7GTP-Sepharose cap-binding assay, HCMV-infected fibroblasts; format: cell-based, human; conditions: rapamycin 20 nM, Torin1 250 nM
Method: FIG. 4. Rapamycin-resistant mTOR activity is required for 4EBP1 phosphorylation and eIF4F complex integrity during HCMV infection. Serum-starved confluent human fibroblasts were infected with HCMV at a multiplicity of 3 PFU/cell. […] (A) At 48 hpi the phosphorylation status of mTORC1 targets was assessed by Western blot assay by using antibodies to phosphorylated targets (4EBP1-PT^37/46 and rpS6-PS^235/6) and total proteins. Tubulin was assayed as a loading control. (B) Same as above (A) except that cells were harvested at the indicated times. (C and D) After mock infection (M) or infection with HCMV (WT) at a multiplicity of 3 PFU/cell, cultures were harvested at the indicated times. Equivalent amounts of protein from each sample were incubated with m^7GTP-Sepharose, and the isolated protein complexes were analyzed by Western blotting using the indicated antibodies to the eIF4F complex and 4EBP1. In all cases the results are representative of at least two independent experiments. lys, lysate.
The phosphorylation status of 4EBP1 regulates cap-dependent protein translation. Hypophosphorylated 4EBP1 binds to eIF4E and inhibits the formation of the eIF4F complex, while the phosphorylation of 4EBP1 inhibits its interaction with eIF4E. […]

eIF4F complex [4] = assay: m7G-Sepharose cap-binding assay, MCMV-infected MEFs; format: cell-based, mouse; conditions: Torin1 250 nM, 48 hpi
Method: FIG. 7. […] At 6 days post infection the amount of MCMV in cell-free supernatants was determined by the TCID50 method. The error bars represent the standard errors of the means from three independent experiments, each performed in duplicate. […] At 48 hpi equal amounts of protein from cell lysates were incubated with m^7G-Sepharose. The presence of eIF4F complex components bound by the cap analog was determined by Western blotting. The results are representative of two independent experiments.
We first investigated the requirement for mTORC2 for the replication of MCMV. […] Finally, the cells were confirmed to lack an intact Rictor locus when assayed by PCR (FIG. 6C). We also employed Akt1/Akt2-null MEFs to evaluate a possible role for the Akt kinase, one of the targets of mTORC2. […] Again, the cells were confirmed to lack Akt by Western blot assay (FIG. 6F). […] 4EBP1 functions to inhibit eIF4F complex assembly unless inactivated by mTORC1-mediated phosphorylation. […] Finally, that 4EBP1 was not detected in lysates of these cells by Western blot assay confirmed the phenotype of the MEFs.

γHV68 = γHV68 replication in MEFs, TCID50; format: cell-based, murine gammaherpesvirus 68; conditions: 0.05 PFU/cell, 6 days post infection, rapamycin 20 nM, Torin1 250 nM

CCC(=O)N1CCN(c2ccc(-n3c(=O)ccc4cnc5ccc(-c6cnc7ccccc7c6)cc5c43)cc2C(F)(F)F)CC1 [Torin1]
accumulation of early protein pUL44 (HCMV [1]): inhibited the accumulation of IE1 and pUL44 to a limited extent
accumulation of immediate-early protein IE1 (HCMV [1]): inhibited the accumulation of IE1 and pUL44 to a limited extent
accumulation of late protein pUL99 (HCMV [1]): dramatically reduced
levels of UL99 mRNA (HCMV [2]): decreased the levels of UL99 mRNA
MCMV replication (MCMV; 4EBP1-null MEFs, rapamycin 20 nM, 6 days post infection): no longer capable of inhibiting
MCMV replication (MCMV; Akt1/Akt2-null MEFs): Torin-sensitive
MCMV replication (MCMV; Rictor-null MEFs, 6 days post infection): effectively inhibited
MCMV replication (MCMV; wild-type MEFs, 0.05 PFU/cell, rapamycin 20 nM): inhibited MCMV replication
association of 4EBP1 with m7GTP-Sepharose (eIF4F complex [3]): substantially increased association
association of eIF4G and eIF4A with the cap analog (eIF4F complex [3]): reduced association
formation of the eIF4F complex (eIF4F complex [4]; 4EBP1-null MEFs): no such effect was observed
formation of the eIF4F complex (eIF4F complex [4]; control MEFs): inhibited the formation of the eIF4F complex
γHV68 replication (γHV68): inhibited both viruses
